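Each compound was tested at five concentrations against cells in 96-well plates for 48 hours. At the GI50, growth is halved. At the TGI there is no net growth.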
Columns and labels:
Experiment in all cases: DTP human tumour cell line panel, 48 h
[1] = test system: HT29 colon
[2] = test system: M14 melanoma
[3] = test system: NCI-H226 lung
[4] = test system: NCI-H460 lung
[5] = test system: OVCAR-5 ovarian
[6] = test system: RXF 393 renal
[7] = test system: SF-295 CNS
[8] = test system: SF-539 CNS
[9] = test system: SNB-19 CNS
[10] = test system: HS 578T breast

Row | SMILES | TGI [1] [µM] | TGI [2] [µM] | TGI [3] [µM] | TGI [4] [µM] | TGI [5] [µM] | TGI [6] [µM] | TGI [7] [µM] | TGI [8] [µM] | TGI [9] [µM] | TGI [10] [µM] | GI50 [10] [µM] | GI50 [2] [µM] | GI50 [3] [µM] | GI50 [4] [µM] | GI50 [5] [µM] | GI50 [7] [µM] | GI50 [9] [µM] | GI50 [8] [µM]
1 | O=[N+]([O-])c1ccc(Cl)c(C2CC(c3cccc4ccccc34)=Nc3ccccc3S2)c1 (stereo not given) | > 59.7 | 63.4 | > 67.1 | > 100 | > 100 | 21.7 | > 94.1 | 49.3 | > 100 |  |  |  |  |  |  |  |  | 
2 | O=C(/C=C/c1ccco1)c1ccc(NCc2nc3ccccc3[nH]2)cc1 | 38.3 | 30.9 | 13.8 | > 100 | 31.5 |  | 31.1 | 33.2 | 30.6 |  |  |  |  |  |  |  |  | 
3 | CN(C)c1ccc(/C=C/c2ccc(/C=C/c3ccc(N(C)C)cc3)cc2)cc1 | > 100 | > 100 | > 100 | > 100 | > 100 | > 100 | > 100 | > 100 | > 100 |  |  |  |  |  |  |  |  | 
4 | O=[N+]([O-])c1ccc(-c2noc(-c3ccc(Cl)cc3)c2C2=NCCN2)cc1 | > 100 | > 100 | > 100 | > 100 | > 100 | > 100 | > 100 | > 100 | > 100 |  |  |  |  |  |  |  |  | 
5 | O=C1NC(=O)C(=Nc2cccc3c(=O)[nH][nH]c(=O)c23)C(c2nc3ccccc3s2)C1=O (stereo not given) | > 100 | > 100 | > 100 | > 100 |  | > 100 | > 100 |  | > 100 |  |  |  |  |  |  |  |  | 
6 | COC(=O)/C(=N/Nc1cccc(Cl)c1)C(C(=O)C(=O)Nc1cccc(Cl)c1C)c1nc2ccccc2nc1C (stereo not given) | > 100 | > 100 |  | > 100 | 59.8 | > 100 | > 100 | > 100 |  |  |  |  |  |  |  |  |  | 
7 | S=C(Nc1ccc(N=Nc2ccccc2)cc1)SCc1ccccc1 | 52.1 | 37.6 | 39 | 39.5 |  | 46.4 | 34.4 | 34.5 | 39.4 | 61.5 |  |  |  |  |  |  |  | 
8 | CCN(CC)c1ccc(N=Nc2ccc([N+](=O)[O-])cc2OC(=O)/C=C/c2ccccc2)c(OC(=O)/C=C/c2ccccc2)c1 | > 100 | > 100 | > 100 | 11.1 |  | > 100 | > 100 | > 27.9 | > 100 |  |  |  |  |  |  |  |  | 
9 | Cc1cc(-c2ccccc2)nc(Nc2nc3ccccc3o2)n1 | > 100 | > 100 | > 100 | > 100 | > 100 |  | > 100 | > 100 | > 100 |  |  |  |  |  |  |  |  | 
10 | NC(=O)c1ccccc1NC(=O)C(=O)Cc1nc2ccccc2[nH]c1=O |  | > 100 |  | > 100 | > 100 | > 100 | > 100 | > 100 | > 100 |  |  |  |  |  |  |  |  | 
11 | COc1cc(OC)c2nccc(NCCCN(C)C)c2c1[N+](=O)[O-] | > 100 | > 100 |  | > 100 | > 100 |  | > 100 | > 100 | > 100 | > 100 |  |  |  |  |  |  |  | 
12 | O=C(CSc1ncn[nH]1)C[P+](c1ccccc1)(c1ccccc1)c1ccccc1 |  | > 100 |  | > 100 | > 100 | > 100 | > 100 | > 100 | > 100 |  |  |  |  |  |  |  |  | 
13 | Cn1c(=O)c(NC(=O)C(Cl)(Cl)Cl)nc2ccccc21 | > 100 | > 100 | > 100 | > 100 |  | > 100 | > 100 | > 100 | > 100 |  |  |  |  |  |  |  |  | 
14 | Nc1cc(O)ccc1N=Nc1ccc(-c2nc3ccccc3[nH]2)cc1 |  | > 100 | > 100 | 35.8 | > 100 |  | > 100 |  | > 100 | > 100 | 72.1 | > 100 | > 100 | 10.2 | > 100 | 16.8 | > 100 | 
15 | Cc1ccc(NC(=O)C2C(=O)N(c3ccc(C)c(C)c3)C(=O)/C2=N\NC(N)=O)cc1C (stereo not given) | > 100 | > 100 | > 100 | > 100 | > 100 | > 100 | > 100 | > 100 | > 100 |  |  |  |  |  |  |  |  | 
16 | CCOc1ccc2c(c1)[n+]([O-])c(-c1ccc(Br)cc1)c(N)[n+]2[O-] | > 100 | > 100 | > 100 | > 100 | > 100 |  | > 100 | > 100 | > 100 |  |  |  |  |  |  |  |  | 
17 | Oc1ccc(O)c(-c2cc(-c3ccc(Cl)cc3)nn2-c2ccccc2)c1 |  | 6.53 | 24.3 | > 100 | 10.7 |  | 39.2 | 52.5 |  | 29.8 | 3.43 | 2.89 | 5.97 | 3.77 | 3.11 | 20 |  | 31
18 | CCn1c(SC(C)C(=O)c2c(C)n(C)n(-c3ccccc3)c2=O)nc2ccccc2c1=O (stereo not given) | > 100 | > 100 | > 100 | > 100 | > 100 |  | > 100 | > 100 |  |  |  |  |  |  |  |  |  | 
19 | Nc1c(O)cc(N=C2C(=O)C=CC=C2C(=O)O)c(O)c1C(=O)O | > 100 | > 59.2 | > 100 |  | > 100 | > 31.6 | > 100 | > 100 | > 100 |  |  |  |  |  |  |  |  | 
20 | Cc1noc2c1C(=O)CCC2 | > 100 | > 100 | > 100 |  | > 100 | > 100 |  | > 100 |  |  |  |  |  |  |  |  |  | 
21 | S=c1nc(COc2ccc(Cl)cc2Cl)[nH][nH]1 | > 100 | > 100 | > 100 | > 100 | > 100 | > 100 | > 100 | > 100 | > 100 |  |  |  |  |  |  |  |  | 
22 | Cc1cccc(C(C)C)c1N1C(=O)C(=O)C(c2nc3ccccc3o2)C(=O)C1=O | > 100 | > 100 | > 100 | > 100 | > 100 | > 100 | > 100 | > 100 | > 100 |  |  |  |  |  |  |  |  | 
23 | Cc1nc2c(o1)C(=Nc1ccccc1)c1ccccc1C2=O | 35.9 | 21.4 |  | 25.5 | 32.4 | 44 | 30.8 | 16.7 | 23.7 |  |  |  |  |  |  |  |  | 
24 | CC(=O)OC1=CC2=CC[C@H]3[C@@H]4CCC(=O)[C@@]4(C)CC(=O)[C@]3(S)[C@@]2(C)CC1 | > 100 | > 100 |  | 69.8 | > 100 | 39.7 | > 100 | 43.1 | > 100 | 74.6 |  |  |  |  |  |  |  | 

Source: PubChem BioAssay (NCI)
